Experimental data published in US11491145B2, “Combination therapies comprising targeted therapeutics” (priority 2017, dated 2022).

Experiment: Average weight changes in H460 model
Type: in vivo
Conditions: SCID mice, tracked 21 days, weight loss also in vehicle group, FIG. 1B
Description: In this study, each study group included 8 SCID mice with H460 xenograft. Each group received vehicle (once per week), talazoparib (0.3 mg/kg, one does per day for 4-5 days per week), SDC-TRAP-0063 (100 mg/kg, once per week), or a combination therapy of SDC-TRAP-0063 (100 mg/kg, once per week) and talazoparib (0.3 mg/kg, 5 days per week).
Average weight changes were also tracked for 21 days and the results for the groups treated with talazoparib, SDC-TRAP-0063, and a combination of SDC-TRAP-0063 and talazoparib were shown in FIG. 1B.

average weight changes (weight loss): Weight loss was observed
Structure (SMILES): Cn1ncnc1[C@H]1c2n[nH]c(=O)c3cc(F)cc(c23)N[C@@H]1c1ccc(F)cc1 [talazoparib, Talazoparib]
